What was measured:
Experiment in all cases: relative viability (nuclei count vs DMSO), 5 days (fraction); higher = more cells survive
[1] = compound: C[C@@H](N)c1ccc(C(=O)Nc2ccnc3[nH]ccc23)cc1 + O=C(c1cc(Cc2n[nH]c(=O)c3ccccc23)ccc1F)N1CCN(C(=O)C2CC2)CC1 [Olaparib] (partner 8 µM)
Outline: (§1)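 Dosing by pin tool came one day after lung cancer cell lines were seeded in 1536-well plates, using either one drug or a fixed anchor-drug dose plus five library-drug doses (not always all listed) in √10 steps. After 5 days, nuclei were counted on 4× images. Relative viability is treated-well nuclei count divided by vehicle-well nuclei count, and values are medians of duplicate plates.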

[2] = compound: C[C@@H](N)c1ccc(C(=O)Nc2ccnc3[nH]ccc23)cc1 + Nc1nc2[nH]cc(CCc3ccc(C(=O)N[C@@H](CCC(=O)O)C(=O)O)cc3)c2c(=O)[nH]1 [Pemetrexed] (partner 0.2 µM)
Outline: as §1

[3] = compound: C1CNCCC1C2=CC(=NN2)C3=CC=NC=C3 + O=C(c1cc(Cc2n[nH]c(=O)c3ccccc23)ccc1F)N1CCN(C(=O)C2CC2)CC1 [Olaparib] (partner 8 µM)
Outline: as §1

[4] = compound: C[C@@H](N)c1ccc(C(=O)Nc2ccnc3[nH]ccc23)cc1 + N=C(N)NC(=N)NCCc1ccccc1 [Phenformin] (partner 250 µM)
Outline: as §1

Row | Cell Line | relative viability ([1]; first compound 0.04 µM) | relative viability ([1]; first compound 0.1265 µM) | relative viability ([1]; first compound 0.4 µM) | relative viability ([1]; first compound 4 µM) | relative viability ([2]; first compound 0.04 µM) | relative viability ([2]; first compound 0.1265 µM) | relative viability ([2]; first compound 0.4 µM) | relative viability ([2]; first compound 4 µM) | relative viability ([3]; first compound 0.08 µM) | relative viability ([3]; first compound 2.53 µM) | relative viability ([3]; first compound 8 µM) | relative viability ([4]; first compound 0.04 µM) | relative viability ([4]; first compound 0.1265 µM) | relative viability ([4]; first compound 0.4 µM) | relative viability ([4]; first compound 4 µM) | relative viability ([1]; first compound 1.265 µM) | relative viability ([2]; first compound 1.265 µM) | relative viability ([3]; first compound 0.8 µM) | relative viability ([4]; first compound 1.265 µM)
1 | NCI-H23 | 0.311 | 0.335 | 0.368 | 0.3 | 0.619 | 0.744 | 0.848 | 0.754 | 0.375 | 0.403 | 0.349 | 0.744 | 0.798 | 0.85 | 0.732 |  |  |  | 
2 | NCI-H1651 | 0.195 | 0.174 | 0.179 | 0.221 | 0.628 | 0.584 | 0.663 | 0.706 | 0.174 | 0.191 | 0.176 | 0.426 | 0.315 | 0.312 | 0.301 | 0.24 | 0.611 | 0.202 | 0.372
3 | NCI-H1975 | 0.771 | 0.757 | 0.78 | 0.523 | 0.313 | 0.31 | 0.265 | 0.211 | 0.87 | 0.936 | 0.778 | 0.359 | 0.405 | 0.39 | 0.255 | 0.67 | 0.228 | 0.894 | 0.347
4 | COR-L23 | 0.296 | 0.341 | 0.322 | 0.176 | 0.204 | 0.195 | 0.188 | 0.178 | 0.287 | 0.323 | 0.406 | 0.44 | 0.526 | 0.442 | 0.277 | 0.277 | 0.201 | 0.344 | 0.28
5 | HCC-44 | 0.949 | 0.966 | 0.966 | 0.889 | 0.594 | 0.603 | 0.636 | 0.627 | 0.979 | 0.953 | 0.957 | 0.138 | 0.172 | 0.285 | 0.218 | 1.05 | 0.707 | 1.06 | 0.1
6 | LOU-NH91 | 0.824 | 0.911 | 0.875 | 0.593 | 0.378 | 0.378 | 0.393 | 0.368 | 0.927 | 0.974 | 0.877 | 0.589 | 0.628 | 0.672 | 0.646 | 0.74 | 0.44 | 0.963 | 0.28
7 | NCI-H441 | 0.544 | 0.505 | 0.539 | 0.35 | 0.245 | 0.302 | 0.257 | 0.223 | 0.422 | 0.57 | 0.567 | 0.879 | 0.995 | 0.879 | 0.74 | 0.562 | 0.231 | 0.673 | 
8 | NCI-H647 | 0.668 | 0.615 | 0.602 | 0.474 | 0.199 | 0.2 | 0.24 | 0.145 | 0.556 | 0.511 | 0.552 | 0.443 | 0.488 | 0.516 | 0.51 | 0.478 | 0.166 | 0.661 | 0.476
9 | NCI-H1915 |  | 0.229 | 0.26 | 0.216 |  | 0.501 | 0.541 | 0.449 | 0.265 | 0.269 | 0.25 | 0.289 | 0.37 | 0.38 | 0.319 |  |  | 0.272 | 
